Laboratory results reported in PubChem BioAssay (NCI).
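In this assay, cells in 96-well plates receive the compound at five concentrations for 48 hours. Endpoints are linearly interpolated between the surrounding concentrations. The concentration for 50% growth inhibition is given as GI50. Definition used: TGI = concentration required for complete inhibition of growth.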

What was measured:
Experiment in all cases: DTP human tumour cell line panel, 48 h
[1] = test system: A498 renal
[2] = test system: HCT-116 colon
[3] = test system: HOP-92 NSCLC
[4] = test system: MCF7 breast
[5] = test system: MDA-MB-435
[6] = test system: OVCAR-4 ovarian
[7] = test system: RXF 393 renal
[8] = test system: SN12C renal
[9] = test system: SNB-19 CNS
[10] = test system: MALME-3M melanoma

Structure (SMILES) | GI50 [1] | TGI [1] | GI50 [2] | TGI [2] | GI50 [3] | TGI [3] | GI50 [4] | TGI [4] | GI50 [5] | TGI [5] | GI50 [6] | TGI [6] | GI50 [7] | TGI [7] | GI50 [8] | TGI [8] | GI50 [9] | TGI [9] | GI50 [10] | TGI [10]
Nc1cc(N)c2nc(-c3ccccc3)c(Nc3ccc(F)cc3)nc2c1 | 17.4 µM | 33.8 µM | 20.1 µM | > 100 µM | 13.1 µM | 43.6 µM | 12.5 µM | > 100 µM | 7.34 µM | 20.8 µM | 13.4 µM | 48.8 µM | 8.71 µM | 28.8 µM | 15.6 µM | 33.9 µM | 22.1 µM | 40 µM | – | –
CC[C@@]1(O)C(=O)NCc2c1cc1n(c2=O)Cc2cc3cc4c(cc3nc2-1)OCO4 | 0.963 µM | 8.73 µM | 0.883 µM | 46 µM | 1.22 µM | > 26.9 µM | 0.217 µM | > 100 µM | 2.11 µM | > 100 µM | 22.5 µM | 97.8 µM | 0.803 µM | > 100 µM | 0.328 µM | 11.7 µM | 0.379 µM | > 61.5 µM | 1.47 µM | 35.7 µM
COc1ccc(NC2=C(Sc3nc(C)cc(C)n3)C(=O)N(Cc3ccccc3)C2=O)cc1Cl | 62.1 µM | > 160 µM | 39 µM | > 160 µM | 29.4 µM | > 160 µM | 56.8 µM | > 160 µM | 158 µM | > 160 µM | 107 µM | > 160 µM | 29 µM | 136 µM | – | – | > 160 µM | > 160 µM | > 160 µM | > 160 µM
CN(C)c1cccc2[nH]c(-c3[nH]ncc3Nc3ccnc(N)n3)nc12 | 0.013 µM | 0.037 µM | < 0.01 µM | 1.09 µM | 0.0152 µM | 0.0603 µM | 0.0206 µM | 1.15 µM | 0.0237 µM | 0.719 µM | 0.0349 µM | 0.706 µM | < 0.01 µM | < 0.0168 µM | 0.0233 µM | 1.1 µM | 0.0152 µM | 1.77 µM | 0.0359 µM | 0.114 µM
Cc1cccc2c3c(sc12)C(c1ccc(Cl)cc1)C(C#N)=C(/N=C/c1ccc(Cl)cc1)O3 (stereo unspecified) | 0.0748 µM | 0.953 µM | 0.402 µM | > 100 µM | 6.04 µM | 36.7 µM | 0.301 µM | > 100 µM | 0.172 µM | 0.407 µM | 2.17 µM | > 100 µM | 0.24 µM | 0.776 µM | 0.623 µM | > 100 µM | 0.457 µM | 24.3 µM | 0.595 µM | > 100 µM
CC1C(=O)N=C2C(=CN(Cc3ccccc3)c3ccccc32)C(=O)N1C (stereo unspecified) | – | > 100 µM | – | > 100 µM | – | > 100 µM | – | > 100 µM | – | > 100 µM | – | > 100 µM | – | > 100 µM | – | > 100 µM | – | > 100 µM | – | > 100 µM
O=c1c2cc(Br)ccc2oc2ccc(Br)cc12 | – | > 100 µM | – | > 100 µM | – | > 100 µM | – | > 100 µM | – | > 100 µM | – | > 100 µM | – | > 100 µM | – | > 100 µM | – | > 100 µM | – | > 100 µM
O=C1N=C2c3c(sc4c3CCCC4)N=CN2C1N=Nc1ccc(Cl)cc1 (stereo unspecified) | 21.3 µM | 47.4 µM | 17.8 µM | > 100 µM | 1.95 µM | 20.2 µM | 20 µM | 66.4 µM | 19.8 µM | 58.1 µM | 51.9 µM | > 100 µM | 36.6 µM | > 100 µM | 28.8 µM | > 100 µM | 25.2 µM | > 100 µM | 23.9 µM | 87.2 µM
CC(C)(C)Cn1c(N)nc2ccc(-c3[nH]c(C(C)(C)C)nc3-c3ccc(F)cc3)nc21 | 2.14 µM | 18.2 µM | 6.75 µM | 23 µM | 3.41 µM | 26.3 µM | 10.6 µM | 25.5 µM | 11.2 µM | 24.1 µM | 13.3 µM | 40.4 µM | 4.04 µM | 14.6 µM | 5.57 µM | 21.4 µM | 11.7 µM | 24.8 µM | 4.08 µM | 18.1 µM
CCCCCC(=O)N1c2ccccc2NC2=C(C(=O)CC(c3ccc(OC)c(OC)c3)C2)C1c1ccc(C(F)(F)F)cc1 (stereo unspecified) | – | – | 72.1 µM | > 100 µM | 12.2 µM | > 100 µM | 24.3 µM | > 100 µM | 50.7 µM | > 100 µM | 15.8 µM | > 100 µM | 37.6 µM | > 100 µM | > 100 µM | > 100 µM | > 100 µM | > 100 µM | > 100 µM | > 100 µM
CC1(C)OC2C(CO)OC(n3ccc(=O)[nH]c3=O)C2O1 (stereo unspecified) | – | > 100 µM | – | > 100 µM | – | > 100 µM | – | > 100 µM | – | > 100 µM | – | – | – | > 100 µM | – | > 100 µM | – | > 100 µM | – | –
COc1n[n+]([O-])c(C)cc1[N+](=O)[O-] | 20.2 µM | 46.3 µM | 10.2 µM | 23.9 µM | 16.2 µM | 35.2 µM | 2.07 µM | 16.2 µM | 16.2 µM | 33.8 µM | 16.1 µM | 30.5 µM | 13.3 µM | 28.7 µM | 13.5 µM | 31.6 µM | – | – | 3.04 µM | 9.85 µM
c1ccc(-c2nc(Nc3ccc(-c4nc5ccccc5[nH]4)cc3)nc(N3CCOCC3)n2)cc1 | 1.09 µM | 2.62 µM | 0.394 µM | 1.62 µM | 1.38 µM | 3.05 µM | 0.877 µM | 2.85 µM | 1.76 µM | 3.28 µM | 1.68 µM | 3.08 µM | 0.501 µM | 2.12 µM | 1.74 µM | 3.83 µM | – | – | 2 µM | 3.85 µM
COc1ccc(C2=NNC(c3ccc(-c4ccc(OC)cc4[N+](=O)[O-])o3)C2)cc1 (stereo unspecified) | 31.6 µM | > 100 µM | 22.8 µM | > 100 µM | 15.1 µM | 81 µM | 20 µM | > 100 µM | 25.3 µM | 91.3 µM | > 100 µM | > 100 µM | 20.3 µM | 54.1 µM | – | – | 31.8 µM | > 100 µM | 0.412 µM | 69.5 µM
